Laboratory results from patent publication US20240016777A1, “COMPOUNDS AND METHODS FOR TREATING VIRAL INFECTIONS” (priority 2020, published 2024).

Biological target: SARS-CoV-2 M^pro (Severe acute respiratory syndrome coronavirus 2 (2019-nCoV) (SARS-CoV-2), UniProt P0DTD1)
Assay: biochemical
Conditions: IC50; compounds evaluated at 0.015-300 μM

`COc1c(O)cc2oc(-c3ccc(O)c(O)c3)cc(=O)c2c1O` [6-methoxyluteolin] showed an IC50 of 4 µM.

Same assay, conditions: compound at 17 μM, duplicates, 20 min pre-incubation

`C[C@@H]1O[C@@H](OC[C@H]2O[C@@H](Oc3c(-c4ccc(O)cc4)oc4cc(O)cc(O)c4c3=O)[C@H](O)[C@@H](O)[C@H]2O)[C@H](O)[C@H](O)[C@H]1O` [Biorobin] was tested, and the “Activity (% enzyme activity by fluorescence relative to initial enzyme activity)” value was “+++ (<10% enzyme activity as indicated by fluorescence measurements)”.

Same assay, conditions: compound at 17 μM, duplicates, 20 min pre-incubation; read-out: Activity (% enzyme activity by fluorescence relative to initial enzyme activity)

`CC(C)=CCC/C(C)=C/Cc1c(-c2ccc(O)cc2O)oc2cc(O)cc(O)c2c1=O` [5,7,2′,4′-Tetrahydroxy-3-geranylflavone] and `C=C(C)C(CC=C(C)C)Cc1c(O)cc(O)c2c(=O)c(O)c(-c3ccc(O)cc3)oc12` (centres unmarked) [8-Lavandulylkaempferol] fall in the same range of remaining activity at 17 µM: 10 to 80% for the first, 10 to 80% for the second.

Same assay, conditions: compounds evaluated at 0.015-300 μM; read-out: IC50

With `C[C@@H]1O[C@@H](OC[C@H]2O[C@@H](Oc3c(-c4ccc(O)cc4)oc4cc(O)cc(O)c4c3=O)[C@H](O)[C@@H](O)[C@H]2O)[C@H](O)[C@H](O)[C@H]1O` [Biorobin] the IC50 was 7 µM.

Same assay, conditions: read-out: Activity (% enzyme activity by fluorescence relative to initial enzyme activity), compound at 17 μM, duplicates, 20 min pre-incubation

Compared with `CC(C)=CCc1cc(C2CC(=O)c3c(O)cc(O)cc3O2)c(CC=C(C)C)c(O)c1O` (racemic) [(+/−)-Sigmoidin A], `CC(C)=CCc1cc([C@H]2Oc3cc(O)cc(O)c3C(=O)[C@@H]2O)cc(CC=C(C)C)c1O` [Cathayanon H] is higher in remaining activity at 17 µM: 10 to 80% for the first, > 80% for the second.

`COc1ccc2c(c1CC=C(C)C)O[C@H](c1ccc(O)cc1O)CC2` (stereo in doubt) [2′,4′-Dihydroxy-7-methoxy-8-prenylflavan] and `COc1cc(O)c(CC=C(C)C)c2c1C(=O)[C@H](O)[C@@H](c1ccc(O)cc1)O2` (stereo in doubt) [3,7,4′-Trihydroxy-5-methoxy-8-prenylflavanone] cannot be ordered by remaining activity at 17 µM: > 80% for the first, > 80% for the second.

Compared with `CC(C)=CCc1c(O)ccc([C@H]2COc3c(CC=C(C)C)c(O)cc(O)c3C2=O)c1O` (stereo in doubt) [5,7,2′,4′-Tetrahydroxy-8,3′-di(gamma,gamma-dimethylallyl)-isoflavanone], `CC(C)=CCc1cc(-c2oc3c(CC=C(C)C)c(O)cc(O)c3c(=O)c2O)ccc1O` [Broussoflavonol F] is higher in remaining activity at 17 µM: 10 to 80% for the first, > 80% for the second.

First: COc1ccc([C@@H]2CC(=O)c3c(O)cc(O)c(CC=C(C)C)c3O2)cc1O (stereo in doubt) [5,7,3′-Trihydroxy-4′-methoxy-8-prenylflavanone]
Second: CC(C)=CCc1c(O)cc(O)c2c1O[C@H](c1ccc(O)cc1)CC2=O [8-Prenylnaringenin]
The remaining activity at 17 µM of the first is higher: > 80% for the first, 10 to 80% for the second.

First: CC(C)=CCc1c(O)cc(O)c2c(=O)c(-c3ccc(O)cc3O)coc12 [2,3-dehydrokievitone]
Second: CC(C)=CCc1c(O)c(CC=C(C)C)c2occ(-c3ccc(O)cc3O)c(=O)c2c1O [8-Prenylluteone]
The remaining activity at 17 µM of the first is lower: 10 to 80% for the first, > 80% for the second.

`O=c1c(-c2ccc(O)cc2O)coc2cc(O)cc(O)c12` [2′-hydroxygenistein] and `CC(C)=CCc1c(-c2ccc(O)cc2O)oc2cc(O)cc(O)c2c1=O` [Albanin A] cannot be ordered by remaining activity at 17 µM: > 80% for the first, > 80% for the second.

`C=C(C)[C@H](CC=C(C)C)Cc1c(O)cc(OC)c2c1O[C@H](c1ccc(O)cc1OC)CC2=O` [2′-methoxykurarinone] and `CC(C)=CCc1c(O)cc2c(c1O)C(=O)C[C@@H](c1ccc(O)cc1O)O2` [Cudraflavanone B] cannot be ordered by remaining activity at 17 µM: > 80% for the first, > 80% for the second.

`COc1ccc(-c2oc3c(CC=C(C)C)c(O)cc(O)c3c(=O)c2O[C@@H]2O[C@@H](C)[C@H](O)[C@@H](O)[C@H]2O[C@@H]2O[C@@H](C)[C@H](O)[C@@H](O)[C@H]2O)cc1` [2″-O-Rhamnosylicariside II] and `COc1ccc(-c2oc3c(CC=C(C)C)c(O)cc(O)c3c(=O)c2O[C@@H]2O[C@@H](C)[C@H](O[C@@H]3O[C@H](CO)[C@@H](O)[C@H](O)[C@H]3O)[C@@H](O)[C@H]2O)cc1` [Baohuoside VII] fall in the same range of remaining activity at 17 µM: 10 to 80% for the first, 10 to 80% for the second.

`CC(C)=CCc1cc(-c2coc3cc(O)cc(O)c3c2=O)cc(CC=C(C)C)c1O` [3′,5′-Diprenylgenistein] and `COc1c(O)cc2oc(-c3cc(CC=C(C)C)c(O)c(CC=C(C)C)c3)c(OC)c(=O)c2c1O` [5,7,4′-Trihydroxy-3,6-dimethoxy-3′,5′-diprenylflavone] cannot be ordered by remaining activity at 17 µM: > 80% for the first, > 80% for the second.

Compared with `CC(C)=CCC/C(C)=C/Cc1c(O)ccc(-c2oc3cc(O)cc(O)c3c(=O)c2CC=C(C)C)c1O` [3′-Geranyl-3-prenyl-2′,4′,5,7-tetrahydroxyflavone], `CC(C)=CCc1c(O)c(CC=C(C)C)c2occ(-c3ccc(O)c(O)c3)c(=O)c2c1O` [6,8-Diprenylorobol] is higher in remaining activity at 17 µM: 10 to 80% for the first, > 80% for the second.

`CC(C)=CCc1c(O)cc2oc(-c3ccc(O)cc3)cc(=O)c2c1O` [4′,5,7-Trihydroxy-6-prenylflavone] and `CC(C)=CCc1c(O)cc2oc(-c3ccc(O)cc3O)cc(=O)c2c1O` [Artocarpesin] cannot be ordered by remaining activity at 17 µM: > 80% for the first, > 80% for the second.

Compared with `COc1ccc([C@@H]2CC(=O)c3c(O)cc(O)cc3O2)cc1CC=C(C)C` [4′-O-Methyllicoflavanone], `COc1cc2c(cc1CC=C(C)C)C(=O)C[C@@H](c1ccc(O)cc1)O2` [Bavachinin] is higher in remaining activity at 17 µM: 10 to 80% for the first, > 80% for the second.

`COc1c(-c2cc(O)c(O)c(CC=C(C)C)c2)oc2c(CC=C(C)C)c(O)cc(O)c2c1=O` [5,7,3′,4′-Tetrahydroxy-3-methoxy-8,5′-diprenylflavone] and `COc1c(-c2ccc(O)c(O)c2)oc2c(C/C=C(\C)CCC=C(C)C)c(O)cc(O)c2c1=O` [5,7,3′,4′-Tetrahydroxy-3-methoxy-8-geranylflavone] cannot be ordered by remaining activity at 17 µM: > 80% for the first, > 80% for the second.

`COc1c(O)cc2oc(-c3ccc(O)c(CC=C(C)C)c3)c(OC)c(=O)c2c1O` [5,7,4-Trihydroxy-3,6-dimethoxy-3-prenylflavone] and `COc1c(-c2ccc(O)c(O)c2)oc2cc(O)c(CC=C(C)C)c(O)c2c1=O` [6-Prenylquercetin-3-methylether] cannot be ordered by remaining activity at 17 µM: > 80% for the first, > 80% for the second.

Compared with `CC(C)=CCc1cc([C@@H]2CC(=O)c3c(O)cc(O)c(CC=C(C)C)c3O2)cc(CC=C(C)C)c1O` [5-Hydroxysophoranone], `CC(C)=CCc1cc([C@@H]2CC(=O)c3ccc(O)c(CC=C(C)C)c3O2)cc(CC=C(C)C)c1O` [(−)-Sophoranone] is lower in remaining activity at 17 µM: > 80% for the first, 10 to 80% for the second.

First: CC(C)=CCC/C(C)=C/Cc1cc(-c2cc(=O)c3c(O)cc(O)cc3o2)c(O)cc1O [5′-Geranyl-5,7,2′,4′-tetrahydroxyflavone]
Second: CC(C)=CCc1cc(-c2cc(=O)c3c(O)cc(O)c(CC=C(C)C)c3o2)ccc1O [8,3′-Diprenylapigenin]
The remaining activity at 17 µM of the first is higher: > 80% for the first, < 10% for the second.

`COc1c(O)cc2oc(-c3cc(CC=C(C)C)c(O)c(CCC(C)CO)c3)c(OC)c(=O)c2c1O` (centres unmarked) [5′-Prenylaliarin] and `COc1cc2oc(-c3ccc(O)cc3O)c(CC=C(C)C)c(=O)c2c(O)c1/C=C/C(C)C` [Artocarpin] cannot be ordered by remaining activity at 17 µM: > 80% for the first, > 80% for the second.

First: CC(C)=CCc1c(O)c(CC=C(C)C)c2occ(-c3ccc(O)cc3)c(=O)c2c1O [6,8-Diprenylgenistein]
Second: CC(C)=CCc1c(O)c(CC=C(C)C)c2c(c1O)C(=O)C[C@@H](c1ccc(O)cc1)O2 [6,8-Diprenylnaringenin]
The remaining activity at 17 µM of the first is lower: 10 to 80% for the first, > 80% for the second.

`CC(C)=CCC/C(C)=C/Cc1c(O)cc2c(c1O)C(=O)C[C@@H](c1ccc(O)cc1)O2` [6-Geranylnaringenin] and `CC(C)=CCc1c(O)cc2c(c1O)C(=O)C[C@@H](c1ccc(O)cc1)O2` [6-Prenylnaringenin] cannot be ordered by remaining activity at 17 µM: > 80% for the first, > 80% for the second.

Compared with `CC(C)=CCc1c(O)c(C)c(O)c2c1O[C@H](c1ccc(O)cc1)CC2=O` [6-Methyl-8-prenylnaringenin], `CC(C)=CCc1cc2c(cc1O)O[C@H](c1ccc(O)cc1)CC2=O` [Bavachin] is higher in remaining activity at 17 µM: < 10% for the first, > 80% for the second.

Compared with `COc1c(O)cc2oc(-c3ccc(O)c(O)c3)cc(=O)c2c1O` [6-methoxyluteolin], `CC(C)=CCc1c(O)ccc2c(=O)cc(-c3ccc(O)c(O)c3)oc12` [Corylifol C] is higher in remaining activity at 17 µM: 10 to 80% for the first, > 80% for the second.

`CC(C)=CCc1c(O)ccc2c(=O)c(-c3ccc(O)cc3)coc12` [8-Prenyldaidzein] and `CC(C)=CCC/C(C)=C/Cc1cc(-c2coc3cc(O)ccc3c2=O)ccc1O` [Corylifol A] cannot be ordered by remaining activity at 17 µM: > 80% for the first, > 80% for the second.

`CC(C)=CCc1c(O)cc(O)c2c(=O)c(O)c(-c3ccc(O)cc3)oc12` [8-Prenylkaempferol] and `CC(C)=CCc1c(O)cc(O)c2c(=O)c(O[C@@H]3O[C@@H](C)[C@H](O)[C@@H](O)[C@H]3O)c(-c3ccc(O)cc3)oc12` [Baohuoside II] cannot be ordered by remaining activity at 17 µM: > 80% for the first, > 80% for the second.

`CC(C)=CCc1c(O)c(CC=C(C)C)c2oc3c(c(=O)c2c1O)C(C=C(C)C)Oc1cc(O)c(O)cc1-3` (centres unmarked) [Artoheterophyllin B] and `CC(C)=CC1Oc2cc(O)ccc2-c2oc3cc(O)cc(O)c3c(=O)c21` (centres unmarked) [Cyclocommunol] cannot be ordered by remaining activity at 17 µM: > 80% for the first, > 80% for the second.

First: CC(C)=CCc1c2c(c(O)c3c(=O)c(-c4ccc(O)c(O)c4)coc13)C=CC(C)(C)O2 [Auriculasin]
Second: CC(C)=CCc1c(-c2ccc(O)cc2O)oc2cc3c(c(O)c2c1=O)C=CC(C)(C)O3 [Cudraflavone B]
The remaining activity at 17 µM of the first is higher: > 80% for the first, 10 to 80% for the second.

`COc1ccc(-c2oc3c(CC=C(C)C)c(O)cc(O)c3c(=O)c2O[C@@H]2O[C@@H](C)[C@H](O)[C@@H](O)[C@H]2O)cc1` [Baohuoside I] and `CC(C)=CCc1c(O[C@@H]2O[C@H](CO)[C@@H](O)[C@H](O)[C@H]2O)cc(O)c2c(=O)c(O[C@@H]3O[C@@H](C)[C@H](O)[C@@H](O)[C@H]3O[C@@H]3O[C@@H](C)[C@H](O)[C@@H](O)[C@H]3O)c(-c3ccc(O)cc3)oc12` [Baohuoside V] fall in the same range of remaining activity at 17 µM: 10 to 80% for the first, 10 to 80% for the second.

`COc1c(C2=Cc3ccc(O)cc3OC2)ccc(O)c1CC=C(C)C` [Bidwillol A] and `COc1ccc(-c2oc3c(CC=C(C)C)c(O[C@@H]4O[C@H](CO)[C@@H](O)[C@H](O)[C@H]4O)cc(O)c3c(=O)c2O[C@@H]2O[C@@H](C)[C@H](OC(C)=O)[C@@H](O)[C@H]2O[C@@H]2O[C@H](CO)[C@@H](O)[C@H](OC(C)=O)[C@H]2O)cc1` [Caohuoside E] cannot be ordered by remaining activity at 17 µM: > 80% for the first, > 80% for the second.
